Patent US9598399B2, “Compound suitable for detection of mitochondrial complex-1” (HAMAMATSU PHOTONICS K.K., priority 2012, dated 2017)

Experiments:
mitochondrial Complex-1 [1] = experiment: Autoradiography using living rat brain slices, inhibition of probe binding by rotenone; conditions: for binding inhibitory effect by rotenone on probe binding: rotenone 2-20000 nM, probe 1 MBq/ml, FIGS. 3 and 4
Protocol: A rat was anesthetized with chloral hydrate (400 mg/kg; I.P.) and decapitated. Thereafter, the brain was immediately sampled and cooled sufficiently, and the cooled brain was immersed in ACSF (artificial cerebrospinal fluid) in a sherbet state. A necessary block of the obtained brain was cut and adhered to a fixing platform of a vibration microtome HM650V (Thermo Fisher Scientific, Inc., Waltham, USA). Thereafter, brain slices having a thickness of 300 μm were produced. The cut brain slices were immersed in 24 ml of ACSF for 30 minutes under bubbling with O2, and thus the activities of cells were calmed. Thereafter, 20 μL of Vehicle or Rotenone (adjusted to concentrations of 2 nM, 20 nM, 200 nM, and 20000 nM in respective beakers) was added to ACSF, and the mixture was bubbled for 30 minutes. Furthermore, 1 MBq/ml of [^18F]BMS or [^18F]BCPP-EF was added to the ACSF, and bubbling was continued for 30 minutes. After completion of the bubbling, the brain slices were taken out and transferred to 100 ml of fresh ACSF. Subsequently, excess RI was washed away by bubbling the ACSF for another 30 minutes. Thereafter, the brain slices were arranged in a row on an OHP sheet, and an image thereof was captured with a scanner (Epson: GT-600). Subsequently, the OHP sheet having the brain slices arranged in a row thereon was placed on an imaging plate (ST-VI, Fujifilm Corp., Tokyo) having sensitivity to radiation, and the OHP sheet was left to stand for about one hour in the dark (contact). The imaging plate was subjected to detection with a Fluoro Image Analyzer, FLA-7000 (Fujifilm Corp., Tokyo).

mitochondrial Complex-1 [2] = experiment: PET analysis of intracerebral activity of mitochondrial Complex-1 in young and aged monkey; type: in vivo; conditions: young monkey (5 years old) versus aged monkey (22 years old), FIG. 10
Protocol: (§1) Cephalic vein or saphenous vein was secured as the route of intravenous administration to the test animal, and femoral artery or posterior tibial artery was secured as the route for collecting arterial blood. First, the amount of radioactivity of [^18F]BMS, [^18F]BCPP-EF or [^11C]BCPP-EM was measured. As radioactive agents, [^18F]BMS and [^18F]BCPP-EF were administered through an indwelling needle indwelled in a test animal in an amount of administration of 300 to 500 MBq, and [^11C]BCPP-EM was administered in an amount of administration of 800 to 1200 MBq, such that the entire amount of the radioactive agent was intravenously administered over about 30 seconds. Simultaneously with the initiation of administration of the radioactive agent, measurement of emission (6 frames of 10 seconds, 6 frames of 30 seconds, 12 frames of 1 minute, 25 frames of 3 minutes, and 6 frames of 5 minutes; 55 frames for 121 minutes in total) was initiated.
The results of a PET analysis obtained from a young monkey (5 years old) and an aged monkey (22 years old) are presented in FIG. 10. [^18F]BCPP-EF was used as the PET probe.

mitochondrial Complex-1 [3] = experiment: PET analysis of intracerebral activity of mitochondrial Complex-1 in Parkinson's disease model monkey; type: in vivo, Macaca fascicularis; conditions: Parkinson's disease (MPTP) model monkey versus normal monkey, FIG. 11
Protocol: as §1, with “Simultaneously with the initiation of administration of the radioactive agent, measurement of emission (6 frames of 10 seconds, 6 frames of 30 seconds, 12 frames of 1 minute, 25 frames of 3 minutes, and 6 frames of 5 minutes; 55 frames for 121 minutes in total) was initiated.” left out
A comparison of the intracerebral activity of mitochondrial Complex-1 was made between a normal monkey and a Parkinson's disease model monkey by a PET analysis. […] The degree of motility disturbance in the limbs was evaluated by observing the way that the Macaca fascicularis monkey picked up the feed, and also, by measuring the decrease in the sites of dopamine reabsorption using a PET analysis, it was finally confirmed that the Macaca fascicularis monkey had the condition of Parkinson's disease.

mitochondrial Complex-1 [4] = experiment: PET analysis of rotenone-administered rat (brain and heart); type: in vivo; conditions: rat cerebellum, cerebral cortex, corpus striatum and heart; rotenone 0.1 mg/kg/h i.v.; FIGS. 5 and 6
Protocol: A rat was anesthetized with chloral hydrate (400 mg/kg; I.P.) and was immobilized on a bed for measurement. Immediately thereafter, rotenone (0.1 mg/kg/h) or a vehicle was administered through the tail vein of the rat. In order to identify the position of the brain during the administration, an analysis was carried out using Clairvivo-CT (Shimadzu Corp.). Thereafter, the bed for measurement was moved to Clairvivo PET. After the administration of rotenone (0.1 mg/kg/h) or the vehicle was completed, [^18F]BMS or [^18F]BCPP-EF was immediately bolus administered in an amount of about 8 MBq/animal through the tail vein of the rat, and the measurement was carried out for 60 minutes. During the measurement, chloral hydrate (100 mg/kg/hr) was continuously administered through the tail vein of the rat, and thereby the rat was inactivated.

[5] = tested on: site of ischemic disorder in the brain; experiment: PET analysis of rat cerebral infarction (PIT) model with blocked middle cerebral artery; type: in vivo; conditions: for accumulation of probe in site of ischemic disorder: Normal, Day-1, Day-7, PET 60 minutes
Protocol: The rat was subjected to anesthesia induction using 4% halothane (30% O2, 70% room air), and during the surgery, the halothane concentration was maintained at 1.5% to 2%. The skin was incised along the left eye cavity margin under a surgical microscope, and an elliptical window (hole) having a size of about 3 mm was cut open in the lower cranium using a dental drill so that the left middle cerebral artery could be seen under the dura mater. Photosensitizer Rose Bengal (20 mg/kg) was administered through the tail vein of the rat, the middle cerebral artery was irradiated with green light having a wavelength of 540 nm for 10 minutes, and thus cerebral infarction was developed in the rat.
In the respective rats before the onset of cerebral infarction (Normal), 1 day after the onset of cerebral infarction (Day-1), and 7 days after the onset of cerebral infarction (Day-7), glucose metabolism (using [^18F]FDG as a probe) and the activity of mitochondrial Complex-1 (using [^18F]BMS or [^18F]BCPP-EF as a probe) in the sites of ischemic disorder in the brain were monitored by the PET method. Specifically, each of the probes was bolus administered in an amount of 6 to 8 MBq/animal through the tail vein of the rat, and the analysis was carried out for 60 minutes. During the analysis, the rat was inactivated by continuously administering chloral hydrate (100 mg/kg/hr) through the tail vein of the rat.

mitochondrial Complex-1 [6] = experiment: PET experiment on inhibition of binding to mitochondrial Complex-1 by rotenone administration in monkey brain; type: in vivo; conditions: compared with [18F]BMS
Protocol: as §1
In the experiment on the inhibition of PET probe binding by rotenone administration in the brain of a monkey, rotenone was administered to the test animal by intravenous injection in an amount of 0.1 mg/kg/hr. Subsequently, [^18F]BMS, [^18F]BCPP-EF or [^11C]BCPP-EM was administered as a probe, and a PET analysis was carried out.

mitochondrial Complex-1 [7] = experiment: In vitro autoradiography of rat brain slices and in vivo PET of living rat brain (background evaluation of [18F]BMS)
Excerpt: On the other hand, it has been reported that [^18F]BMS-747158-02 (2-tert-butyl-4-chloro-5-[4-(2-fluoroethoxymethyl)-benzyloxy]-2H-pyridazin-3-one, [^18F]BMS) serves as a PET probe that recognizes mitochondrial Complex-1 (hereinafter, may be referred to as “MC-1”), and this compound is used in a functional evaluation of the brain or the heart (Patent Literature 1 and Non-Patent Literature 1).

Oil-solubility (log P) = type: physicochemical

Which “binding inhibitory effect by rotenone on probe binding” value (mitochondrial Complex-1 [1]) does the source give for `CC(C)(C)n1ncc(OCc2ccc(OCCCC[18F])nc2)c(Cl)c1=O` [[^18F]BCPP-BF] here?
The value was “affected by the binding inhibitory effect of rotenone”.

With `CC(C)(C)n1ncc(OCc2ccc(OCCOCC[18F])nc2)c(Cl)c1=O` [[^18F]BCPP-EF] as the compound, how does the “amount of PET probe accumulated in the brain” value (mitochondrial Complex-1 [2]) read?
The value was “a larger amount of the PET probe was accumulated in the brain in the young monkey than in the aged monkey”.

And the “amount of PET probe accumulating in the brain” value (mitochondrial Complex-1 [3])?
The value was “smaller in the Parkinson's disease model monkey, compared with the normal monkey”.

What about the “uptake quantity of probe after administration of rotenone” value (mitochondrial Complex-1 [4]) of the same compound?
The value was “further reduced by the administration of rotenone than that of [^18F]BMS”.

And the “accumulation of probe in site of ischemic disorder” value ([5]; rat PIT model, FIG. 7)?
The value was “no accumulation of the probe was observed in the site of ischemic disorder”.

And the “degree of accumulation of probe, site of ischemic disorder versus normal site” value ([5]; rat PIT model, compared with [18F]BMS, FIG. 7)?
The value was “clearly different between a site of ischemic disorder and a normal site”.

What about the “specificity to mitochondrial Complex-1” value (mitochondrial Complex-1 [6]) of the same compound?
Its value is “higher specificity to mitochondrial Complex-1 than [^18F]BMS”.

What about the “binding inhibitory effect of rotenone on probe binding” value (mitochondrial Complex-1 [6]; rotenone 0.1 mg/kg/hr i.v., FIGS. 8 and 9) of the same compound?
Its value is “more likely to be affected by the binding inhibitory effect of rotenone”.

What about the “specificity to mitochondrial Complex-1” value (mitochondrial Complex-1 [1]; compared with [18F]BMS) of the same compound?
Its value is “higher specificity to mitochondrial Complex-1 than [^18F]BMS”.

And the “binding inhibitory effect by rotenone on probe binding” value (mitochondrial Complex-1 [1])?
The value was “more likely to be affected by the binding inhibitory effect by rotenone than [^18F]BMS”.

With `CC(C)(C)n1ncc(OCc2ccc(COCCF)cc2)c(Cl)c1=O` [[^18F]BMS, 2-tert-butyl-4-chloro-5-[4-(2-fluoroethoxymethyl)-benzyloxy]-2H-pyridazin-3-one] as the compound, how does the “accumulation of probe in site of ischemic disorder” value ([5]; rat PIT model, FIG. 7) read?
The value was “no accumulation of the probe was observed in the site of ischemic disorder”.

And the non-specific binding capacity (mitochondrial Complex-1 [7]; rat brain)?
Its non-specific binding capacity is “high non-specific binding capacity”.

What about the “inhibitory effect in inhibition experiment using rotenone” value (mitochondrial Complex-1 [7]; rotenone, inhibitory drug specific to Complex-1) of the same compound?
The value was “an inhibitory effect cannot be sufficiently checked”.

And the logP (Oil-solubility (log P))?
The logP was 1.42.

Which “accumulation of probe in site of ischemic injury of the brain” value ([5]; cerebral infarction model rat, PET, background statement) does the source give for `OC[C@H]1OC(O)[C@H]([18F])[C@@H](O)[C@@H]1O` (stereo partly shown) [[^18F]FDG, ^18F-fluorodeoxyglucose] here?
The value was “accumulation of [^18F]FDG is increased”.

What about the “accumulation of probe in site of ischemic disorder” value ([5]; rat PIT model, FIG. 7) of the same compound?
The value was “accumulation of [^18F]FDG increased in the site of ischemic disorder”.
